Results from ChEMBL document CHEMBL1151200, “Comparison of fascaplysin and related alkaloids: a study of structures, cytotoxicities, and sources” (J Nat Prod, 2004).

How the values were obtained:
[1] = test system: Malme-3M; test: Antitumor activity against human MALME-3M cells; type: functional, cell-based
[2] = test system: HCT-116; test: Antitumor activity against human HCT116 cells; type: functional, cell-based
[3] = test system: K562; test: Antitumor activity against human K562 cells; type: functional, cell-based
[4] = test system: CCRF-CEM; test: Cytotoxicity against human CEM cells at 0.4 ug/disk by disk diffusion soft agar colony formation assay; type: functional
[5] = test system: OVCAR-3; test: Antitumor activity against human OVCAR-3 cells; type: functional, cell-based
[6] = test system: RPMI-8226; test: Antitumor activity against human RPMI8226 cells; type: functional, cell-based
[7] = test system: HT-29; test: Antitumor activity against human HT-29 cells; type: functional, cell-based
[8] = test system: SW-620; test: Antitumor activity against human SW620 cells; type: functional, cell-based
[9] = test system: U-251; test: Antitumor activity against human U251 cells; type: functional, cell-based
[10] = test system: SNB-75; test: Antitumor activity against human SNB75 cells; type: functional, cell-based
[11] = test system: OVCAR-8; test: Antitumor activity against human OVCAR8 cells; type: functional, cell-based
[12] = test system: TK-10; test: Antitumor activity against human TK10 cells; type: functional, cell-based
[13] = test system: SF-268; test: Antitumor activity against human SF268 cells; type: functional, cell-based
[14] = Cytotoxicity against human H116 cells at 0.4 ug/disk by disk diffusion soft agar colony formation assay; type: functional
[15] = test system: UACC-62; test: Antitumor activity against human UACC62 cells; type: functional, cell-based
[16] = test system: SN12C; test: Antitumor activity against human SN12C cells; type: functional, cell-based
[17] = test system: HCC 2998; test: Antitumor activity against human HCC2998 cells; type: functional, cell-based
[18] = test system: MOLT-4; test: Antitumor activity against human MOLT4 cells; type: functional, cell-based
[19] = test system: NCI-H23; test: Antitumor activity against human NCI-H23 cells; type: functional, cell-based
[20] = test system: A549; test: Antitumor activity against human A549/ATCC cells; type: functional, cell-based
[21] = test system: MDA-MB-231; test: Antitumor activity against human MDA-MB-231 cells; type: functional, cell-based
[22] = test system: MDA-MB-435; test: Antitumor activity against human MDA-MB-435 cells; type: functional, cell-based
[23] = test system: UO-31; test: Antitumor activity against human UO31 cells; type: functional, cell-based
[24] = test system: RXF 393; test: Antitumor activity against human RXF393 cells; type: functional, cell-based
[25] = Cytotoxicity against mouse CFU-GM cells at 0.4 ug/disk by disk diffusion soft agar colony formation assay; type: cell-based
[26] = test system: OVCAR-5; test: Antitumor activity against human OVCAR5 cells; type: functional, cell-based
[27] = test system: MDA-N; test: Antitumor activity against human MDA-N cells; type: functional, cell-based
[28] = Antitumor activity against human 786-O cells; type: functional, cell-based; conditions: 786-0
[29] = test system: SF-539; test: Antitumor activity against human SF539 cells; type: functional, cell-based
[30] = test system: CCRF-CEM; test: Antitumor activity against human CCRF-CEM cells; type: functional, cell-based
[31] = test system: HCT-15; test: Antitumor activity against human HCT15 cells; type: functional, cell-based
[32] = test system: M14; test: Antitumor activity against human M14 cells; type: functional, cell-based
[33] = Antitumor activity against human Hs 578T cells; type: functional, cell-based
[34] = test system: IGROV-1; test: Antitumor activity against human IGROV1 cells; type: functional, cell-based
[35] = test system: T47D; test: Antitumor activity against human T47D cells; type: functional, cell-based
[36] = test system: A498; test: Antitumor activity against human A498 cells; type: functional, cell-based
[37] = test system: EKVX; test: Antitumor activity against human EKVX cells; type: functional, cell-based
[38] = Cytotoxicity against human H125 cells at 0.4 ug/disk by disk diffusion soft agar colony formation assay; type: functional
[39] = test system: SK-OV-3; test: Antitumor activity against human SKOV3 cells; type: functional, cell-based
[40] = test system: HL-60(TB); test: Antitumor activity against human HL-60(TB) cells; type: functional, cell-based
[41] = test system: SNB-19; test: Antitumor activity against human SNB19 cells; type: functional, cell-based
[42] = test system: SF-295; test: Antitumor activity against human SF295 cells; type: functional, cell-based
[43] = test system: MCF7; test: Antitumor activity against human MCF7 cells; type: functional, cell-based
[44] = test system: MCF7; test: Antitumor activity against […] human MCF7 cells; type: functional, cell-based
[45] = test system: UACC-257; test: Antitumor activity against human UACC257 cells; type: functional, cell-based
[46] = test system: NCI-H522; test: Antitumor activity against human NCI-H522 cells; type: functional, cell-based
[47] = test system: L1210; test: Cytotoxicity against mouse L1210 cells at 0.4 ug/disk by disk diffusion soft agar colony formation assay; type: functional
[48] = test system: LOX IMVI; test: Antitumor activity against human LOXIMVI cells; type: functional, cell-based
[49] = test system: NCI-H226; test: Antitumor activity against human NCI-H226 cells; type: functional, cell-based
[50] = test system: DU-145; test: Antitumor activity against human DU145 cells; type: functional, cell-based
[51] = test system: KM12; test: Antitumor activity against human KM12 cells; type: functional, cell-based
[52] = test system: MC-38; test: Cytotoxicity against mouse C38 cells at 0.4 ug/disk by disk diffusion soft agar colony formation assay; type: functional
[53] = test system: CAKI-1; test: Antitumor activity against human Caki1 cells; type: functional, cell-based
[54] = test system: HOP-62; test: Antitumor activity against human HOP62 cells; type: functional, cell-based
[55] = test system: COLO 205; test: Antitumor activity against human COLO205 cells; type: functional, cell-based
[56] = test system: SK-MEL-5; test: Antitumor activity against human SK-MEL-5 cells; type: functional, cell-based
[57] = test system: OVCAR-4; test: Antitumor activity against human OVCAR4 cells; type: functional, cell-based
[58] = test system: SR; test: Antitumor activity against human SR cells; type: functional, cell-based
[59] = test system: ACHN; test: Antitumor activity against human ACHN cells; type: functional, cell-based
[60] = test system: SK-MEL-28; test: Antitumor activity against human SK-MEL-28 cells; type: functional, cell-based
[61] = test system: NCI-H322M; test: Antitumor activity against human NCI-H322M cells; type: functional, cell-based
[62] = test system: NCI-H460; test: Antitumor activity against human NCI-H460 cells; type: functional, cell-based
[63] = test system: BT-549; test: Antitumor activity against human BT549 cells; type: functional, cell-based
[64] = test system: PC-3; test: Antitumor activity against human PC3 cells; type: functional, cell-based

Molecule `O=C1c2ccccc2-[n+]2ccc3c([nH]c4ccccc43)c21.[Cl-]` [FASCAPLYSIN CHLORIDE] has an IC50 [1] of 0.36 µM, an IC50 [2] of 0.6 µM and an IC50 [3] greater than 10 µM. It also gave an Activity [4] of 300 Zone units, an IC50 [5] of 1.5 µM and an IC50 [6] greater than 10 µM. For the same molecule, the IC50 [7] was greater than 10 µM, the IC50 [8] was 3.7 µM and the IC50 [9] was 3.6 µM. It also gave an IC50 [10] of 5.4 µM, an IC50 [11] greater than 10 µM and an IC50 [12] of 5.4 µM. It also gave an IC50 [13] greater than 10 µM, an Activity [14] of 500 Zone units and an IC50 [15] of 4.9 µM. The IC50 [16] was 4.2 µM, the IC50 [17] was 1.7 µM and the IC50 [18] was greater than 10 µM. It also gave an IC50 [19] of 4.5 µM, an IC50 [20] of 4.2 µM and an IC50 [21] greater than 10 µM. It also gave an IC50 [22] of 0.56 µM, an IC50 [23] greater than 10 µM and an IC50 [24] of 3.5 µM. For the same molecule, the Activity [25] was 200 Zone units, the IC50 [26] was 4.4 µM and the IC50 [27] was 0.56 µM. For the same molecule, the IC50 [28] was 6.7 µM, the IC50 [29] was 4.2 µM and the IC50 [30] was greater than 10 µM. It also gave an IC50 [31] greater than 10 µM, an IC50 [32] of 0.92 µM and an IC50 [33] greater than 10 µM. The IC50 [34] was 4.5 µM, the IC50 [35] was greater than 10 µM and the IC50 [36] was 5.2 µM. The IC50 [37] was 5.1 µM, the Activity [38] was 400 Zone units and the IC50 [39] was greater than 10 µM. The IC50 [40] was greater than 10 µM, the IC50 [41] was 6.1 µM and the IC50 [42] was 3.9 µM. It also gave an IC50 [43] greater than 10 µM, an IC50 [44] greater than 10 µM and an IC50 [45] greater than 10 µM. The IC50 [46] was 4.5 µM, the Activity [47] was 400 Zone units and the IC50 [48] was greater than 10 µM. It also gave an IC50 [49] of 9.6 µM, an IC50 [50] of 4.9 µM and an IC50 [51] of 4.6 µM. It also gave an Activity [52] of 500 Zone units, an IC50 [53] of 6.1 µM and an IC50 [54] of 4.7 µM. For the same molecule, the IC50 [55] was 1.2 µM, the IC50 [56] was 2 µM and the IC50 [57] was 5.3 µM. The IC50 [58] was greater than 10 µM, the IC50 [59] was greater than 10 µM and the IC50 [60] was 9.3 µM. It also gave an IC50 [61] of 5 µM, an IC50 [62] of 4.2 µM and an IC50 [63] greater than 10 µM. The IC50 [64] was greater than 10 µM.
